Results reported in US6750202B1, “Phosphinate peptide analogs for the treatment of fibrotic disorders” (priority 1998, dated 2004).
*1 amine or outer side, *2 acyl side, *3 side chain or, on linkers, in order; H or OH if unused. Where a SMILES comes first, the peptide text is derived from it. [ ]: non-standard residue; d: D form. The star is where a group is joined. X1 = C[C@H](CP(=O)(O)[C@H](Cc1ccccc1)N[*:1])C(=O)[*:2]; Cbz = O=C(OCc1ccccc1)*

Columns and labels:
human meprin = details: concentrations of up to 100 nM; FIG. 3
Protocol: The meprin activity test was carried out in a completely analogous manner to the in-vitro assay for measuring PCP activity. Instead of the recombinant PCP, use was made of human meprin, which also transforms the fluorescence-labeled decapeptide.

[1] = target: recombinant PCP (procollagen C-proteinase) (Homo sapiens, UniProt P13497); details: 100 nM inhibitor; FIG. 1
Sequence of recombinant PCP (procollagen C-proteinase) (P13497 121-986, species assumed): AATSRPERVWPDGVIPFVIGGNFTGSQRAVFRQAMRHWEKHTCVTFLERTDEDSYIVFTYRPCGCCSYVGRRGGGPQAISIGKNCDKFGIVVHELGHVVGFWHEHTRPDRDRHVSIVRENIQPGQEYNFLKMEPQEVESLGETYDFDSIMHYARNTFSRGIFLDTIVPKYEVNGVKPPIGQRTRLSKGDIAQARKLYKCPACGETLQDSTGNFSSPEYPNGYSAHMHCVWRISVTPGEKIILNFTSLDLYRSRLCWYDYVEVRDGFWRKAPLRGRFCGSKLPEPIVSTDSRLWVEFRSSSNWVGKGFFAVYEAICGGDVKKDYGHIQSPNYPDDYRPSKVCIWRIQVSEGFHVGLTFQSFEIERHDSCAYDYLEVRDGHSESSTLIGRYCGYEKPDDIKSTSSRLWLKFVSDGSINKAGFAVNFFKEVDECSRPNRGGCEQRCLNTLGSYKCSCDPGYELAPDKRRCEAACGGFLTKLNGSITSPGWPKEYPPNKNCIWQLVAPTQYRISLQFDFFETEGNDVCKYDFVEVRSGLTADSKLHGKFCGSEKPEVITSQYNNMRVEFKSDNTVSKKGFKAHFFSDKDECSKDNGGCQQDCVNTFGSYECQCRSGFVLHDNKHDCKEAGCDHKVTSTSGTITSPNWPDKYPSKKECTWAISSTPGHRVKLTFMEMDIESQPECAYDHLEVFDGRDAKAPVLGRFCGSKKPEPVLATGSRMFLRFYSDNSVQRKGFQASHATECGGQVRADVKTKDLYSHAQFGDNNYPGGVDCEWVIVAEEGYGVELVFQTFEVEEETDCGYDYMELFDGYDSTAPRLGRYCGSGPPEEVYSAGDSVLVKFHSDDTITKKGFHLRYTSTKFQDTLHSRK

COC(=O)[C@H](CC(C)C)NC(=O)[C@@H]1CCCN1C(=O)[C@H](C)CP(=O)(O)[C@H](Cc1ccccc1)NC(=O)[C@H](CCCCN)NC(=O)[C@@H]1CCCN1C(=O)OCc1ccccc1 [Z-PKF(PC)APL-O-Me] (Cbz-PK[X1]PL-OMe)
inhibition of meprin in its transformation of the fluorescence-labeled peptide (human meprin): only slightly inhibited | inhibition of PCP enzyme activity (transformation of the DABCYL-EDANS-decapeptide substrate as a function of time) [1]: almost completely inhibited
